Source: patent US7601717B2, “Pterin analogs” (BioMarin Pharmaceutical Inc., priority 2008, dated 2009)
Counter-ions that a name gives are not always drawn.

Key:
[1] = tested on: human umbilical vein endothelial cells (HUVEC); experiment: Nitric oxide production (nitrite+nitrate) in NAS-treated HUVEC; assay type: cell-based; conditions: for NO production (nitrite+nitrate): 5-22 hours treatment; for effect (response) relative to that of free BH4: 5 to 22 hours exposure
Protocol: Cultured human umbilical vein endothelial cells (HUVEC) were pretreated with 3 mM N-acetylserotonin (NAS), an inhibitor of the enzyme sepiapterin reductase. Inhibition of this pathway typically results in loss of endogenous BH4, depressing the endogenous eNOS activity far below normal and provides an assay to test for restoration of eNOS activity.
Thus, subconfluent HUVECs were seeded in a 24-well plate and grown overnight in EGM2 medium (full growth medium). The next morning, fresh medium was added to the cells (300 μL/well), 3 mM N-acetylserotonin (NAS), an inhibitor of the enzyme sepiapterin reductase (a member of the synthesis pathway for endogenous BH4) was added to the cells to decrease the endogenous BH4 levels. After an incubation of 1.5 hours, 50, 100, or […] BH4 or compound of Example 5, Example 6, Example 7, or Example 9 were added to the cells. The cells were allowed to react with the BH4 or the compound of Example 5, Example 7, or Example 9 for 5-22 hours. The production of NO was then measured as changes in total (nitrite+nitrate) by the Griess reaction subsequent to nitrate reductase treatment. 90 μL of reaction mixture (25 mM Tris-HCL, pH7.4, 1 μM FAD, 1 μM FMN, 100 μM L-Arginin 2.5 mM CaCl2, 1 mM NADPH, 0.04 mg/ml Calmodulin) was mixed with 5 μl of eNOS (15 units/ml) and 5 μl of BH4 or BH4 analogs (1, 10, 100 μM), followed by incubation in a 37° C. water bath for 90 minutes. Then 100 μl of water and 20 μl of the nitrite fluorescent probe DAN (2,3-diaminonaphthalene, 316 μM) were added to each reaction and incubated at room temperature for 10 minutes. The dye DAN reacts with nitrite to yield the fluorescent product naphthotriazole. The reaction was then stopped by adding 10 μl of NaOH (2.8 M), and the fluorescence of the samples was read using excitation frequency 375 nm and emission frequency 415 nm. The percentage of nitrite+nitrate with BH4 or compound of Example 5, Example 7, or Example 9 is shown in FIG. 17 (after 5 hours); FIG. 18 (after 17 hours); and FIG. 19 (after 22 hours). The results for Example 6 are shown in FIG. 20 (after 5 hours) and FIG. 21 (after 20 hours).

Stability in rat plasma = assay type: in vitro ADME; conditions: over a 60 minute period, compound remaining
Protocol: (§1) The stability of various compounds as disclosed herein was tested in human and rat and in simulated gastric fluid. Each compound was tested over an hour period for concentration of the compound remaining at each time point. The results are shown in FIGS. 3 (human plasma stability), 4 (rat plasma stability), and 5 (simulated gastric fluid stability) for the compounds of Example 2, 3, 4, and 20.

[2] = Stability in human plasma; assay type: in vitro ADME; conditions: over a 60 minute period, compound remaining
Protocol: as §1

[3] = Stability in simulated gastric fluid; assay type: in vitro ADME; conditions: over a 60 minute period, compound remaining
Protocol: as §1

eNOS = eNOS (Homo sapiens, UniProt P29474); experiment: Cell-free eNOS activity assay reconstituted from purified components; assay type: biochemical; conditions: 1, 10, 100 μM, 90 minutes at 37° C., nitrite by DAN fluorescence
Protocol: Also tested was the effect of BH4 analogs compared to free BH4 on stimulation of eNOS activity in a cell-free assay system reconstituted from purified components. 90 μL of reaction mixture (25 mM Tris-HCL, pH7.4, 1 μM FAD, 1 μM FMN, 100 μM L-Arginine, 2.5 mM CaCl2, 1 mM NADPH, 0.04 mg/ml Calmodulin) was mixed with 5 μl of eNOS (15 units/ml) and 5 μl of BH4 or BH4 analogs (1, 10, 100 μM), followed by incubation in a 37° C. water bath for 90 minutes. Then 100 μl of water and 20 μl of the nitrite fluorescent probe DAN (2,3-diaminonaphthalene, 316 μM) were added to each reaction and incubated at room temperature for 10 minutes. The dye DAN reacts with nitrite to yield the fluorescent product naphthotriazole. The reaction was then stopped by adding 10 μl of NaOH (2.8 M), and the fluorescence of the samples was read using excitation frequency 375 nm and emission frequency 415 nm.

[4] = tested on: Spontaneously Hypertensive rats (SHR); experiment: Anti-hypertensive effect, tail-cuff systolic blood pressure in SHR; assay type: in vivo, rat
Protocol: This study was to determine if the BH4 analogs have a similar hypotensive effect and to determine the steady state pharmacokinetics (PK) profiles of plasma BH4 concentrations.
Male Wistar-Kyoto (WKY) rats and SHR rats (Elevage Janvier, France, 7 weeks old) were housed seven days prior to the beginning of experiments with free access to standard chow and water and maintained on an inversed 12 h dark/light cycle (10:00/22:00). After a one week acclimation period, the animals were trained to the tail-cuff system during one week (3 sessions). The following week, two baseline measurements of blood pressure were performed.
The rats (10 weeks old) then received respective treatments of water, vehicle, 2, 10, or 30 mg/kg/day of BH4 analog (Example 5, Val-BH4) or 100 mg/kg/day BH4 by oral gavage (8 mL/kg, dissolved in 100 μM ascorbic acid) performed once a day during 21 days of treatment. The doses of BH4 analog were prepared as mg/kg equivalents of BH4 (calculated using BH4 and BH4 analog 2HCl molecular weights). Body weight was monitored 3 times per week and the most recent body weight was used to adjust drug and vehicle daily intake. Seven experimental groups of rats were evaluated: Group 1—normotensive WKY rats and water gavage; Group 2—hypertensive SHR rats and water gavage; Group 3—hypertensive SHR rats and vehicle gavage; Group 4—hypertensive SHR rats and BH4 100 mg/kg/day gavage; Group 5—hypertensive SHR rats and BH4 analog 2 mg/kg/day gavage; Group 6—hypertensive SHR rats and BH4 analog 10 mg/kg/day gavage; Group 7—hypertensive SHR rats and 30 mg/kg/day BH4 analog gavage. To account for animal loss or animal disqualification during experimental handling, 10 rats were used in each group, with the expectation to obtain interpretable results for at least 8. Systolic blood pressure (SBP) and heart rate (HR) were measured twice weekly during the 3-week treatment period.
Systolic blood pressure (SBP) and heart rate (HR) were measured using the tail-cuff method, twice before the beginning of the treatment and twice weekly during the 3 week treatment period (6 measurements during the treatment period). Rats were placed in a plastic restraint and warmed to […]. A pneumatic pulse sensor was attached to the tail. After cuff inflation, SBP was measured and HR was determined by counting pulse numbers per minute. Data for each rat was taken an average of at least 4 stable readings. At least 10 cuff inflations were performed for each BP measurement.

[5] = Pharmacokinetics and bioavailability, single intravenous or oral doses, partial Latin square crossover; assay type: in vivo, male cynomolgus monkeys; conditions: male, cynomolgus monkey, plasma; intravenous; title 5 mg/kg, text 2 mg/kg; n=6
[6] = as above; assay type: in vivo, male cynomolgus monkeys; conditions: oral 40 mg/kg, n=6
Protocol: This study was to determine the pharmacokinetics and relative bioavailability of BH4 when given as parent BH4 or an analog of BH4 to male cynomolgus monkeys as single intravenous or oral doses in a partial Latin square crossover design.
Six, male, non-naïve cynomolgus monkeys were fasted overnight prior to dosing through approximately 4 hours postdose. Individual doses were calculated based on body weights recorded on each day of dose administration. Five experimental groups of monkeys were evaluated using a partial Latin square crossover design: Group 1-2 mg/kg BH4 by IV; Group 2-40 mg/kg BH4 by oral gavage; Group 3-2 mg/kg BH4 analog by IV; Group 4-5 mg/kg BH4 analog by oral gavage; Group 5-20 mg/kg BH4 analog by oral gavage. The doses of BH4 analog were prepared as mg/kg equivalents of BH4 (calculated using BH4 and BH4 analog 2HCl molecular weights). The partial Latin square crossover design was used to minimize dose sequence effect on interanimal variability for statistical purposes. The monkeys received their respective dose of BH4 intravenously (2 mL/kg, dissolved in 100 μM ascorbic acid and 5% mannitol in sterile water for injection, SWFI), Example 5 intravenously (2 mL/kg, dissolved in 100 μM ascorbic acid and 5% mannitol in citrate buffer, pH 3) or BH4 or Example 5 by oral gavage (4 mL/kg, dissolved in 100 μM ascorbic acid in SWFI). Prior to use, all intravenous dose formulations were filtered into the final dosing container using a 0.22-micron syringe filter (Millex GS or GV; Millipore).
For intravenous administration, blood (approximately 1 mL) was collected from each animal predose and at 0.083, 0.25, 0.5, 1, 2, 3, 4, 6, 8, 12, 18, and 24 hours postdose. For oral administration, blood (approximately 1 mL) was collected from each animal predose and at 0.25, 0.5, 1, 2, 3, 4, 6, 8, 12, 18, and 24 hours postdose. Blood was collected into tubes containing K2-EDTA anticoagulant, which was maintained in chilled condition, and centrifuged to obtain plasma. Centrifugation began within 30 minutes of collection. Three, 100-μL aliquots of each plasma sample were promptly transferred following centrifugation into individual tubes containing 0.1% (w/v) dithioerythritol (DTE) for storage. Once the plasma aliquot was added, each tube was vortexed briefly to mix then immediately placed on dry ice.

[7] = male, cynomolgus monkey, plasma

CCC(C)[C@H](N)C(=O)O[C@@H](C)[C@H](O)[C@H]1CNc2nc(N)[nH]c(=O)c2N1 (stereo in doubt) [Example 6, 2-Amino-3-methyl-pentanoic acid 2-(2-amino-4-oxo-3,4,5,6,7,8-hexahydro-pteridin-6-yl)-2-hydroxy-1-methyl-ethyl ester]
NO production (nitrite+nitrate) [1]: increased NO production in a dose-dependent manner | effect (response) relative to that of free BH4 [1]: similar, if slightly reduced, effect

C[C@H](O)[C@H](O)[C@H]1CNc2nc(N)[nH]c(=O)c2N1C(=O)OCc1ccccc1 (stereo in doubt) [Example 20, 2-Amino-6-(1,2-dihydroxy-propyl)-4-oxo-4,6,7,8-tetrahydro-1H-pteridine-5-carboxylic acid benzyl ester]
stability in rat plasma (Stability in rat plasma): high level of stability | stability in human plasma [2]: high level of stability | stability in simulated gastric fluid [3]: high level of stability

C[C@H](O)[C@H](O)[C@H]1CNc2nc(N)[nH]c(=O)c2N1 [BH4, Tetrahydrobiopterin, reference compound]
potentiation of eNOS activity (eNOS): did potentiate eNOS activity in a dose-dependent manner | lowering of systolic blood pressure (SBP) ([4]; SHR, 100 mg/kg/day oral gavage, after 3 weeks, vs vehicle): about 8.4 mmHg | blood pressure of SHR ([4]; previous studies, 10, 100, and 500 mg/kg/day, two weeks of oral administration): reduced the blood pressure | AUC(0-inf) [5]: 6.96 µM·h | AUC(0-t) [5]: 6.76 µM·h | Cmax [5]: 7.05 µM | Tmax [5]: 6.6 min | bioavailability ([6]; male, cynomolgus monkey, plasma, po, 40 mg/kg, based on 6R-BH4 IV, read-out: Absolute Bioavailability, BH4): 9.8% | AUC(0-inf) [6, 7]: 13.4 µM·h | AUC(0-t) [6, 7]: 11.9 µM·h | Cmax [6, 7]: 2.33 µM | Tmax [6, 7]: 3.7 h | half-life [6, 7]: 5.9 h | Absolute Bioavailability, BH4 ([6]; based on 6R-BH4 IV, 40 mg/kg): 9.2 (4.2) %

CC(=O)O[C@@H]([C@H](C)OC(C)=O)[C@H]1CNc2nc(N)[nH]c(=O)c2N1C(C)=O [Example 2, Acetic acid 2-acetoxy-1-(5-acetyl-2-amino-4-oxo-3,4,5,6,7,8-hexahydro-pteridin-6-yl)-propyl ester]
stability in rat plasma (Stability in rat plasma): high level of stability | stability in human plasma [2]: high level of stability | stability in simulated gastric fluid [3]: high level of stability

C[C@@H](O)[C@@H](O)[C@H]1CNc2nc(N)[nH]c(=O)c2N1 [Example 6S-BH4, reference compound]
potentiation of eNOS activity (eNOS): did not significantly potentiate eNOS activity

C[C@H](OC(=O)[C@@H](N)CCCCN)[C@H](O)[C@H]1CNc2nc(N)[nH]c(=O)c2N1 [Example 7, 2,6-Diamino-hexanoic acid 2-(2-amino-4-oxo-3,4,5,6,7,8-hexahydro-pteridin-6-yl)-2-hydroxy-1-methyl-ethyl ester tri-hydrochloride]
potentiation of eNOS activity (eNOS): slight effect on eNOS activity | NO production (nitrite+nitrate) [1]: increased NO production in a dose-dependent manner | effect (response) relative to that of free BH4 [1]: similar, if slightly reduced, effect

C[C@H](OC(=O)[C@@H]1CCCN1)[C@H](O)[C@H]1CNc2nc(N)[nH]c(=O)c2N1 [Example 9, Pyrrolidine-2-carboxylic acid 2-(2-amino-4-oxo-3,4,5,6,7,8-hexahydro-pteridin-6-yl)-2-hydroxy-1-methyl-ethyl ester dihydrochloride]
potentiation of eNOS activity (eNOS): slight effect on eNOS activity | NO production (nitrite+nitrate) [1]: increased NO production in a dose-dependent manner | effect (response) relative to that of free BH4 [1]: similar, if slightly reduced, effect
